Results: ChEMBL document CHEMBL1201862, “PubChem BioAssay data set” (2004)
Calls of active or inactive are those of the source.

Legend:
[1] = Trypanosoma cruzi growth suppression in host cells – NIH3T3 host cells, beta-gal luminescence, confirmation (AID 2044); type: functional, cell-based;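 note: intracellular parasites grown in NIH/3T3 mouse fibroblasts as host cells; luminescent beta-galactosidase reporter signal from transgenic T. cruzi replicating inside host cells; inhibitors lower the luminescence signal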
[2] = NIH3T3 cell viability loss – ATP luminescence, mouse fibroblasts, counter-screen, dose response (AID 2010); type: functional, cell-based;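 note: cells exposed to compound for about 90 hours before reading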
cells [3] = assay: cells
cells [4] = assay: cells; remark: listed apart in the source
[5] = viability of uninfected HEp-2 cells – cell-based, HTS, cytotoxicity control for RSV inhibitor project, dose response (AID 2410); type: functional; details: human respiratory syncytial virus
[6] = biological target: T1, Sentrin-specific protease 8 (Homo sapiens, UniProt Q96LD8); type: functional;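 note: luminescence read-out of SENP8 inhibition, dose-response confirmation following an ultra-high-throughput screen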
T1 sequence (Q96LD8 whole entry): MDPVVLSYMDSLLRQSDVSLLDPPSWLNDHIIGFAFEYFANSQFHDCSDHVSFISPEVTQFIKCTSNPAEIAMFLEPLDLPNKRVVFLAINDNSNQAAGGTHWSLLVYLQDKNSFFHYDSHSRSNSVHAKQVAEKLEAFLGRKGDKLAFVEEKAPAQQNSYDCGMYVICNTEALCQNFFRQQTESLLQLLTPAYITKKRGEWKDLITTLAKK

[7] = biological target: Serine/threonine-protein phosphatase PP1-alpha catalytic subunit (Homo sapiens, UniProt P62136); assay: inhibition of protein phosphatase 1 activity – biochemical, fluorescence, dose response (AID 2394)
Serine/threonine-protein phosphatase PP1-alpha catalytic subunit, sequence (P62136 whole entry): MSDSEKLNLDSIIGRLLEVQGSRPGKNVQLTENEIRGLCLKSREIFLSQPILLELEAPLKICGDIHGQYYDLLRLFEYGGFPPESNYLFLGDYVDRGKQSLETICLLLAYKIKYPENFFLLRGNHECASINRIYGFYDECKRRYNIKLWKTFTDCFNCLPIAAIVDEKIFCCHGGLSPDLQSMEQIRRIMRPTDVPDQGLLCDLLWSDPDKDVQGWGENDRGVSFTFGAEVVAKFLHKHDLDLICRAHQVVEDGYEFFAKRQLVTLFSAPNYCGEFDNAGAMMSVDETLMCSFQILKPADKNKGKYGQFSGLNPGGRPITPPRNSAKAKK

[8] = biological target: T2, Serine/threonine-protein phosphatase (Homo sapiens, UniProt Q9BPW0); assay: inhibition of protein phosphatase 5 activity – biochemical, fluorescence, dose response (AID 2395)
T2 sequence (Q9BPW0 whole entry): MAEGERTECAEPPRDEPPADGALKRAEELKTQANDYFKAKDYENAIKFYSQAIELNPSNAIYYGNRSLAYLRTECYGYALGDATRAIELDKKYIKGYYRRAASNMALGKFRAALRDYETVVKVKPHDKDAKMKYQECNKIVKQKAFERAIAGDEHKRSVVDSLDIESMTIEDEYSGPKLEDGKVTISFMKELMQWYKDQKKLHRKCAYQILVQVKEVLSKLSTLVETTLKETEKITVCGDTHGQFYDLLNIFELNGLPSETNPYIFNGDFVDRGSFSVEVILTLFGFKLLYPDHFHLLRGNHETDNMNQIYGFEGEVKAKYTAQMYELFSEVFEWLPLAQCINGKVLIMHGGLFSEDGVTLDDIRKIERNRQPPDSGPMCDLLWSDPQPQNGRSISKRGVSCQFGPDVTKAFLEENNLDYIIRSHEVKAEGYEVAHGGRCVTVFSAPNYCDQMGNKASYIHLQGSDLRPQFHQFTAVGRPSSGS

[9] = biological target: T3, Sentrin-specific protease 7 (Homo sapiens, UniProt Q9BQF6); type: functional;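 note: Luminescence-based dose-response confirmation of ultra-high-throughput screening hits, measuring inhibition of SENP7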
T3 sequence (Q9BQF6 whole entry): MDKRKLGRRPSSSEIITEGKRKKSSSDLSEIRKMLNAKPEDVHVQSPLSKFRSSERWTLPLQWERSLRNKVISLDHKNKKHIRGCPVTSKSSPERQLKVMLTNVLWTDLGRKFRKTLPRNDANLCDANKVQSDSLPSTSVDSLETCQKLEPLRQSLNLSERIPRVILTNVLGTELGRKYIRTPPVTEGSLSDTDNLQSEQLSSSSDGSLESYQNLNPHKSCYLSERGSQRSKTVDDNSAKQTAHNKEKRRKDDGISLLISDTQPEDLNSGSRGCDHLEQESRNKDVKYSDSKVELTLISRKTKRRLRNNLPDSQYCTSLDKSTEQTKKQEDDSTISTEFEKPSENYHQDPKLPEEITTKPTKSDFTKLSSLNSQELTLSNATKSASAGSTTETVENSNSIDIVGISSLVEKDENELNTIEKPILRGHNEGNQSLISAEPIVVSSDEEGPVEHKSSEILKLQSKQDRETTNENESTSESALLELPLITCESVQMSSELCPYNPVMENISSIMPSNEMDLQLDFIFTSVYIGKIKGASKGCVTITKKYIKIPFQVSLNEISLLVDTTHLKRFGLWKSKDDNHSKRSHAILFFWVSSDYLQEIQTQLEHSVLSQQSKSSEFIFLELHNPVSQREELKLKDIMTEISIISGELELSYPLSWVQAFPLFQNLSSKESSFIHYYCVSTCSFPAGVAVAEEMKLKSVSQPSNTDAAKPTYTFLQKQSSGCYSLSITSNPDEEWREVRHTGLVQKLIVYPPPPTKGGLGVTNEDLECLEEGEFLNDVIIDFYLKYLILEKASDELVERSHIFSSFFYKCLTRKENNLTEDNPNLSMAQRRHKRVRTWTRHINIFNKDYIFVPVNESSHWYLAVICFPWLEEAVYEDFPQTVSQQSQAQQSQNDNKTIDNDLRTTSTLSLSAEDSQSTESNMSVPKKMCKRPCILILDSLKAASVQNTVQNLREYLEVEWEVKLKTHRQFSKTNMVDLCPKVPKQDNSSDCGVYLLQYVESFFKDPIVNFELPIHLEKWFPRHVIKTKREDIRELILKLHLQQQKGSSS

[10] = biological target: T4, Sentrin-specific protease 6 (Homo sapiens, UniProt Q9GZR1); type: functional;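 note: Luminescence-based dose-response confirmatory assay of SENP6 inhibition, following up an ultra-high-throughput screen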
T4 sequence (Q9GZR1 whole entry): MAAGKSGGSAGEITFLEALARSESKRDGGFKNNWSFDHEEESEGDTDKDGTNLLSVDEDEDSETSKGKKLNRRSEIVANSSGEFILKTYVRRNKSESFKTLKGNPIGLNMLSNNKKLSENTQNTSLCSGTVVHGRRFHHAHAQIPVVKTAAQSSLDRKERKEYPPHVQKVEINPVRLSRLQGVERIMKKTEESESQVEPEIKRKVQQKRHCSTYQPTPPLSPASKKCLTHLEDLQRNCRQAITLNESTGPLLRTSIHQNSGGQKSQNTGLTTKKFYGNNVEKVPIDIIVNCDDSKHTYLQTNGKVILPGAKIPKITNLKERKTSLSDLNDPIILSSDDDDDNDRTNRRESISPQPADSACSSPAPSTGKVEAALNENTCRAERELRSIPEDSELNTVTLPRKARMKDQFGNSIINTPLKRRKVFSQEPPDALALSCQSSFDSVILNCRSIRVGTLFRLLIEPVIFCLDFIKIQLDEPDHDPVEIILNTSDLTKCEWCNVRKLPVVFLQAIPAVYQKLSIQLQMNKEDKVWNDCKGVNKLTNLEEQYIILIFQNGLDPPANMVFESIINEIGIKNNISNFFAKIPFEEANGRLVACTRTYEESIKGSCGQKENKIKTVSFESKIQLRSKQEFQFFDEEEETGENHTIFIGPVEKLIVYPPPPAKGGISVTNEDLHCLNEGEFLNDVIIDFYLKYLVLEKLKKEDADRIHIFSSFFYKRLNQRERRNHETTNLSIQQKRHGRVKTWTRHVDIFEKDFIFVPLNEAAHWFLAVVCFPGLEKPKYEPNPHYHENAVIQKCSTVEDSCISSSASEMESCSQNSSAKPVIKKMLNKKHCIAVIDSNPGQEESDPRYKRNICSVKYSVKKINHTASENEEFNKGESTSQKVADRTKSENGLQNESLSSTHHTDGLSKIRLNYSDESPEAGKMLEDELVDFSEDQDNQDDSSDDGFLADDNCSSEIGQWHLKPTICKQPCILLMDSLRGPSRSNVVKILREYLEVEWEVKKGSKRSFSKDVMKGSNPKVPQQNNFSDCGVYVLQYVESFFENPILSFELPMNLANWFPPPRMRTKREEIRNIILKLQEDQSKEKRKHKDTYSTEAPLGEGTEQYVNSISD

Caspase-3 = biological target: T5, Caspase-3 (Homo sapiens, UniProt P42574); type: functional;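 note: Dose-response selectivity test against caspase-3 for candidate inhibitors of sentrin-specific proteases (SENPs)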
T5 sequence (P42574 whole entry): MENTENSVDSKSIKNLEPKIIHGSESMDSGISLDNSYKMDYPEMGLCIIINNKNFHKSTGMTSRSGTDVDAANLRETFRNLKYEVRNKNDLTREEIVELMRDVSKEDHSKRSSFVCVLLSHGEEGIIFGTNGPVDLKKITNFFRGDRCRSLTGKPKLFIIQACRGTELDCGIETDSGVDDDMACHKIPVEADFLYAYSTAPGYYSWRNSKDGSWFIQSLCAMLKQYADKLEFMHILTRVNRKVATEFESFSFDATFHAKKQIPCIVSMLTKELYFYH

[11] = biological target: Peroxisome proliferator-activated receptor gamma/Nuclear receptor coactivator 3 (Homo sapiens, UniProt P37231); type: functional;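 note: agonist potency for raising coactivator recruitment to the receptor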
[12] = biological target: Peroxisome proliferator-activated receptor gamma/Nuclear receptor coactivator 2 (Homo sapiens, UniProt P37231); type: functional;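 note: agonist potency for raising coactivator recruitment to the receptor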
Peroxisome proliferator-activated receptor gamma/Nuclear receptor coactivator 2, sequence (P37231 whole entry): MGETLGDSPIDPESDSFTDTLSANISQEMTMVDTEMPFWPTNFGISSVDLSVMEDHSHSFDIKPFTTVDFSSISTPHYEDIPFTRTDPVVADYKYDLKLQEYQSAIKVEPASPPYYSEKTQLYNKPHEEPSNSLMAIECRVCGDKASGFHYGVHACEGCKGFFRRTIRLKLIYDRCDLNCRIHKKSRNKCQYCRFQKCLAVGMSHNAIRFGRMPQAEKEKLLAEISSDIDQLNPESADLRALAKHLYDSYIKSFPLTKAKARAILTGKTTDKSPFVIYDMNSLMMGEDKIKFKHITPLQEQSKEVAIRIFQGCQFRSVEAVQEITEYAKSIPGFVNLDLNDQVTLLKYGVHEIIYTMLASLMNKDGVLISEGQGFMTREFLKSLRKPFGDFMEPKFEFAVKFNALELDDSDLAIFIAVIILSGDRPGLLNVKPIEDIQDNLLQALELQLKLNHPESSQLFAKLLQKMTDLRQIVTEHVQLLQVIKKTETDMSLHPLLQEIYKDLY
Peroxisome proliferator-activated receptor gamma/Nuclear receptor coactivator 2, sequence (Q15596 whole entry, further chain): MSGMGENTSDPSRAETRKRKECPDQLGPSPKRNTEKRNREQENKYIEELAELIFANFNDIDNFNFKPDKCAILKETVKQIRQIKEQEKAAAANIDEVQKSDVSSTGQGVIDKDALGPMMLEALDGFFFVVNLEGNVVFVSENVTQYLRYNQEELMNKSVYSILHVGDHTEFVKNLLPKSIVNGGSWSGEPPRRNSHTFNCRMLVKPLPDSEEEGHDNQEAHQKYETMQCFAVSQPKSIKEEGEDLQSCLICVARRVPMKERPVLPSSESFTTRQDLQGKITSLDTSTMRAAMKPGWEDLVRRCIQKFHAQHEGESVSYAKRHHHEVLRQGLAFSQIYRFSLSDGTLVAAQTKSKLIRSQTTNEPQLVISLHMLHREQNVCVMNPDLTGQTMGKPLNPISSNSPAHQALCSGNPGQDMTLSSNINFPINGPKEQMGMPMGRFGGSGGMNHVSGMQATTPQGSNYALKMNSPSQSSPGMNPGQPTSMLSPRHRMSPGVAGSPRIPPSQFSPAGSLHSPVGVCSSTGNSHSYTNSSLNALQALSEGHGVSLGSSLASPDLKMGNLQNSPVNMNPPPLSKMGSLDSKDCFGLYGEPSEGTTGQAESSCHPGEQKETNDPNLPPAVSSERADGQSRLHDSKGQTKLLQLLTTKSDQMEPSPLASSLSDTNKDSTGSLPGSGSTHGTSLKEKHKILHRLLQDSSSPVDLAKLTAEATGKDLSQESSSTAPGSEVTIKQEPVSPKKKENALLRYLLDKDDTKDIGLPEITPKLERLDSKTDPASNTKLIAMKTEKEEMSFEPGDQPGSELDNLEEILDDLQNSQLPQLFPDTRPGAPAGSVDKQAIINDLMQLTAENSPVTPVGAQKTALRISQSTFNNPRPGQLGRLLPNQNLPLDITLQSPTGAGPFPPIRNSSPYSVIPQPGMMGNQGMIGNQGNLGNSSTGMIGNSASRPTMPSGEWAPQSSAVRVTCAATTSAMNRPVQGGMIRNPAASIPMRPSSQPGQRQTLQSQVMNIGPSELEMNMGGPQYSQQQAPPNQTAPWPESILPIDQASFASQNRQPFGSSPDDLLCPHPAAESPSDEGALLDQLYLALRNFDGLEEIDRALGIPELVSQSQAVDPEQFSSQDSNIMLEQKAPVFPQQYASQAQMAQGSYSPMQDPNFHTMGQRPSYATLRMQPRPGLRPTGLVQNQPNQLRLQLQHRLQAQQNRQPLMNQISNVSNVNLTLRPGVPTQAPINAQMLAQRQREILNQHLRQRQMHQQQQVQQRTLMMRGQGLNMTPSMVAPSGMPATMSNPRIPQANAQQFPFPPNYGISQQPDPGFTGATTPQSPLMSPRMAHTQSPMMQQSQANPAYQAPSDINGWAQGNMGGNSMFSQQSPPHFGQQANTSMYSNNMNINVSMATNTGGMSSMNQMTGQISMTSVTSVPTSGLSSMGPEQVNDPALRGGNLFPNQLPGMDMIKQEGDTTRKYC

[13] = biological target: Peroxisome proliferator-activated receptor gamma/Nuclear receptor coactivator 1 (Homo sapiens, UniProt P37231); type: functional;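 note: agonist potency as compounds enhance coactivator SRC-1 recruitment to PPARgamma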
Peroxisome proliferator-activated receptor gamma/Nuclear receptor coactivator 1, sequence (P37231 whole entry): as the sequence (P37231 whole entry) above
Peroxisome proliferator-activated receptor gamma/Nuclear receptor coactivator 1, sequence (Q15788 whole entry, further chain): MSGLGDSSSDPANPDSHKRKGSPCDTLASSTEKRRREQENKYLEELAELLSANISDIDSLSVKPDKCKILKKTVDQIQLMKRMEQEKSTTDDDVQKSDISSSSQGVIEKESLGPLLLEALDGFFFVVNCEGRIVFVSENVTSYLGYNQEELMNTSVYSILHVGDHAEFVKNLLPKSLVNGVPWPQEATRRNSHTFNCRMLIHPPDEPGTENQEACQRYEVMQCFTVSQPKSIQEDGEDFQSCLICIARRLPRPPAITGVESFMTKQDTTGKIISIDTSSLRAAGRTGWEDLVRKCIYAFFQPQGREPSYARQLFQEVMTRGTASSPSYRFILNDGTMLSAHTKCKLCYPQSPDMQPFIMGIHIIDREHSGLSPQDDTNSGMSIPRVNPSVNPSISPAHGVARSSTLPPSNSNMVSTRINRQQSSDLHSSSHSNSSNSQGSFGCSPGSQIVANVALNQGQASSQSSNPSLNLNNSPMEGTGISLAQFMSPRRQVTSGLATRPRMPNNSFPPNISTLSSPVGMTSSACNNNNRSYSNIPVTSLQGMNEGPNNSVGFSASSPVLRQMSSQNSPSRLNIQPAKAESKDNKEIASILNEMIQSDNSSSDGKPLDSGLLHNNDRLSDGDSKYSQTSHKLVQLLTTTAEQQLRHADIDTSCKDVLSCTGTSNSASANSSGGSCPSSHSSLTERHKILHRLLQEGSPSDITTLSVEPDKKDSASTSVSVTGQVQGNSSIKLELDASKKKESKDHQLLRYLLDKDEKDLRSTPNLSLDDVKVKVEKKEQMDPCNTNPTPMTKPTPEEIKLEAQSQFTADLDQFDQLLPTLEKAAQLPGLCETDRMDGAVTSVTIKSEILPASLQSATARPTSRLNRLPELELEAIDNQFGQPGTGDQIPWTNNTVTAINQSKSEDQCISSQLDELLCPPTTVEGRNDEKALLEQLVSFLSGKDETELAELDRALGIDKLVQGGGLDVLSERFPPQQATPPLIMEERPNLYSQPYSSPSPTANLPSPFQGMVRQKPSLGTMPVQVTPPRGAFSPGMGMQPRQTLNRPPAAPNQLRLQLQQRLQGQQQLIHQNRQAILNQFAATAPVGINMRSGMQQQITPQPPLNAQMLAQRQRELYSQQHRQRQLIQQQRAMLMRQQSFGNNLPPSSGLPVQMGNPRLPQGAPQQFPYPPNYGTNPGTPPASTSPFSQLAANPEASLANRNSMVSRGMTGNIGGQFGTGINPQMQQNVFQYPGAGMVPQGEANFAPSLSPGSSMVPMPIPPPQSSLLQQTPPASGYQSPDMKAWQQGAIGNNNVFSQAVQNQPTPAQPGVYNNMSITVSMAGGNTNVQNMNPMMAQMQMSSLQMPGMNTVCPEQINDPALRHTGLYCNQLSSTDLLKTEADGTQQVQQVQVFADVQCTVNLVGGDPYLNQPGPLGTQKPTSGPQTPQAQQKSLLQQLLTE

[14] = biological target: T6, Neuropeptide Y receptor type 2 (Homo sapiens, UniProt P49146); type: functional, cell-based;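 note: HEK293 cells expressing the receptor and a CNG channel; stimulus was NPY near EC95 followed by isoproterenol to raise cAMP; antagonist potency measured as restoring cAMP signal that NPY suppresses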
T6 sequence (P49146 whole entry): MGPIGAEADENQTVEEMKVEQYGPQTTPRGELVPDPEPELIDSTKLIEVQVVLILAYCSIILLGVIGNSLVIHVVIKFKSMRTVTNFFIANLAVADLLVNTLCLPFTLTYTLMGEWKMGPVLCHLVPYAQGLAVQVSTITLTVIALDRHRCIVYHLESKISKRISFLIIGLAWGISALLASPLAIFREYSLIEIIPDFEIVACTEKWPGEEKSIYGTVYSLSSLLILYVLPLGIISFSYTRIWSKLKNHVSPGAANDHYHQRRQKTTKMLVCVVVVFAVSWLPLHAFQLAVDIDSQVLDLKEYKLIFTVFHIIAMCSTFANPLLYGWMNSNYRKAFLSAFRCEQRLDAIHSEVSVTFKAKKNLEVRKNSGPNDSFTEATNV

[15] = biological target: T7, Neuropeptide Y receptor type 1 (Homo sapiens, UniProt P25929); type: functional;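 note: HEK293 cells with a CNG channel challenged with NPY then isoproterenol; potency as antagonist that reverses NPY suppression of cAMP signal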
T7 sequence (P25929 whole entry): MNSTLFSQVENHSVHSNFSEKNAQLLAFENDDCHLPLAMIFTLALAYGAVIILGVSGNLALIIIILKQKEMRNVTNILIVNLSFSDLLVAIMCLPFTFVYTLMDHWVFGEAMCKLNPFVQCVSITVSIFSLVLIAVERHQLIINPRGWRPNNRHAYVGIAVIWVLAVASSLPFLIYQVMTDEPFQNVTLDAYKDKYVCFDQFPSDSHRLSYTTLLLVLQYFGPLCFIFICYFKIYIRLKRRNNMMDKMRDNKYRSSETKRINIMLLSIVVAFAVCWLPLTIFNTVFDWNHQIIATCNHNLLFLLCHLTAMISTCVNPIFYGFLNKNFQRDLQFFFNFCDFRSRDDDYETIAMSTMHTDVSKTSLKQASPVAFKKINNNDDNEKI

Streptococcus = assay: GAS UMAA2166 growth inhibition – luminescence, BacTiterGlo, counter-screen for streptokinase expression inhibitor project, dose response (AID 1915); type: functional, organism-based;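 note: potency for reduction of bacterial viability or growth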
[16] = test system: Streptococcus sp. 'group A'; assay: Streptococcus pyogenes SK(-)GAS viability under kanamycin – luminescence, BacTiterGlo, confirmation, counter-screen for streptokinase expression inhibitor project, dose response (AID 1900); type: functional, organism-based
[17] = Luminescence Cell-Based Dose Retest to Confirm Inhibitors of Cancer Stem Cells. [Related pubchem assays (depositor defined):AID2717, AID2721]; type: functional; details: Homo sapiens
Streptokinase A = biological target: T8, Streptokinase A (Streptococcus pyogenes serotype M1, UniProt P10520); assay: viability-normalized secreted streptokinase activity reduction – plasminogen activation absorbance, OD405, dose response (AID 1914); type: functional, Streptococcus pyogenes M1 GAS;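 note: secreted streptokinase activity via plasminogen activation per viability signal from cell pellet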
T8 sequence (P10520 whole entry): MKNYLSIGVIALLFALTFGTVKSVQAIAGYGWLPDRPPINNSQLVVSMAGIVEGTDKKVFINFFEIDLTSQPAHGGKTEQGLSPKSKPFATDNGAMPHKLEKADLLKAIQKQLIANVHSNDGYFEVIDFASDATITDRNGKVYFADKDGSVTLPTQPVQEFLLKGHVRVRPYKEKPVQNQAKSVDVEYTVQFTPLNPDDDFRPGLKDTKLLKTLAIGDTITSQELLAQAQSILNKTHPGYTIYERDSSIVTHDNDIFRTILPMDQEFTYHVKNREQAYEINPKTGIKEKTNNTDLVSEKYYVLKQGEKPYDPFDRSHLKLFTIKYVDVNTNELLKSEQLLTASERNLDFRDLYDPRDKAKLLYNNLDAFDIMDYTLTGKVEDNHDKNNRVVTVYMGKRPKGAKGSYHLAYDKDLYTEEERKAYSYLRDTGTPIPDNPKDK

[18] = Luminescence-based dose response cell-based high throughput screening assay for cytotoxic compounds using the IEC-6 intestinal epithelial cell line. [Related pubchem assays: 1858 (Summary AID.), 1825 (Counterscreen.), 1907 (Confirmation screen.)]; type: functional
[19] = Luminescence Cell-Based Dose Response HTS to Identify Activators of Luciferase Translation or Activity in H4 […] Cells. [Related pubchem assays: 1829 (Project Summary), 1814 (Primary HTS)]; type: functional
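Throughout, for AC50: cells exposed to compound for roughly 70 hours or longer before luminescence read.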

CCOc1ccc(OCC(O)CNC2CCN(Cc3ccccc3)CC2)cc1 (configuration not stated)
EC50 [1]: < 0.1 µM (active)
EC50 [2]: 9.8 µM (active)
EC50 (cells [3]): 0.255 µM (active)

Cc1ccc2cc(CN(CC3CCCO3)C(S)=NCc3ccco3)c(O)nc2c1C (configuration not stated)
IC50 (cells [4]): 24.6 µM (active)
CC50 [5]: 24.3 µM (active)

CN1CC[C@@]2(C)c3cc(O)ccc3N(C)C2O1 (some centres not stated)
IC50 [6]: 10.7 µM (active)
IC50 [7]: 52.3 µM (not active)
IC50 [8]: > 7.45 µM (active)
IC50 [9]: 14.3 µM (active)
IC50 [10]: 11.9 µM (active)
IC50 (Caspase-3): > 100 µM (inactive)

O=C(CSc1ccc2nnc(-c3ccc(Cl)cc3)n2n1)N1CCCc2ccccc21
EC50 [11]: 52.3 µM (not active)
EC50 [12]: 27.4 µM (not active)
EC50 [13]: 50.1 µM (not active)

O=C(/C=C/c1ccc(OCc2c(F)cccc2Cl)cc1)N1CCOCC1
IC50 (cells [4]): 10.4 µM (active)
CC50 [5]: 15.9 µM (active)

CCOc1ccc(NC(=S)N2CCC(C(O)(c3ccccc3)c3ccccc3)CC2)cc1
IC50 [14]: 0.22 µM (active)
IC50 [15]: > 35 µM (not active)

CCOC(=O)c1ccc(NC(=O)CCc2nc(-c3ccc(C)cc3)no2)cc1
EC50 [11]: > 79.4 µM (not active)
EC50 [12]: > 79.4 µM (not active)
EC50 [13]: > 79.4 µM (not active)

CC(C)COC(=O)c1cccc2c1-c1ccccc1/C2=N\O
EC50 (Streptococcus): > 150 µM (not active)
EC50 [16]: 4.74 µM (active)
AC50 [17]: 5.69 µM (active)
IC50 [14]: 4.96 µM (active)
IC50 [15]: 6.46 µM (active)
CC50 [5]: > 50 µM (active)
EC50 (Streptokinase A): > 50 µM (not active)

Cc1ccc(Nc2nc(-c3ccncc3)cs2)cc1
EC50 [1]: 0.239 µM (active)
EC50 [2]: 8.83 µM (active)
IC50 [18]: 2.71 µM (active)
EC50 [19]: 0.149 µM (active)
